Test results: patent US20160046618A1, “Cyclopropyl Fused Thiazin-2-Amine Compounds as Beta-Secretase Inhibitors and Methods of Use” (AMGEN INC., priority 2014, published 2016)
Read-outs that look alike come from different tables or passages of the source.

Tests used:
human recombinant BACE1 = human recombinant BACE1 (Homo sapiens (Human), UniProt P56817); assay: In vitro enzymatic BACE1 FRET assay; assay type: biochemical; details: BACE1 FRET enzyme assay; read-out: IC50 IP (μM) BACE1 enzyme
Summary of the method: (§1)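 Ni-NTA-purified recombinant protease incubated with compound; reaction started with 50 nM FRET peptide substrate (fluorophore/quencher flanking the BACE cleavage site) and run 1 h. Stopped with Tris buffer raising pH to neutral; fluorescence read at ex 488/em 590 nm.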

human recombinant BACE2 = human recombinant BACE2 (Homo sapiens (Human), UniProt Q9Y5Z0); assay: In vitro enzymatic BACE2 FRET assay; assay type: biochemical; details: BACE2 FRET enzyme assay; read-out: IC50 IP (μM) BACE2 enzyme
Summary of the method: as §1

[1] = system: Aβ40 in conditioned medium of cells stably expressing Amyloid Precursor Protein (APP); assay: In vitro BACE-1 cell-based assay (Aβ40 sandwich ELISA); details: read-out: IC50 IP (μM) BACE1 cell
Summary of the method: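 APP-expressing cells treated 24 h at 37 °C with compound in 10-point dose response (top 100 μM or 10 μM, 0.1% DMSO final). Secreted Aβ40 in conditioned medium quantified by sandwich ELISA (pAb40 capture, biotinylated 6E10 detection, time-resolved europium fluorescence); IC50 from percent inhibition versus concentration.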

Recombinant Cat D = Recombinant Cat D (Homo sapiens (Human), UniProt P07339); assay: In vitro enzymatic Cathepsin D (Cat D) FRET assay; assay type: biochemical; details: Cathepsin D FRET enzyme assay; read-out: IC50 IP (μM) CatD
Summary of the method: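 Cleavage of a 20 nM FRET peptide by CHO-derived Cat D over 1 h at pH 3.5 (citrate buffer with CHAPS, 10% DMSO final). Endpoint fluorescence is read after Tris quench.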

Aβ 40 in rat CSF = assay: In vivo inhibition of beta-secretase: Aβ40 reduction in rat CSF; details: after 4 h
Source text: (§2) In Vivo Inhibition of Beta-Secretase
Several animal models, including mouse, rat, dog, and monkey, may be used to screen for inhibition of beta-secretase activity in vivo following administration of a test compound sample. Animals used in this invention can be wild type, transgenic, or gene knockout animals. For example, the Tg2576 mouse model, prepared and conducted as described in Hsiao et al., 1996, Science 274, 99-102, and other non-transgenic or gene knockout animals are useful to analyze in vivo inhibition of Amyloid beta peptide (Abeta) production in the presence of inhibitory test compounds. Generally, 2 to 18 month old Tg2576 mice, gene knockout mice or non-transgenic animals are administered test compounds formulated in vehicles, such as cyclodextran, phosphate buffers, hydroxypropyl methylcellulose or other suitable vehicles. One to twenty-four hours following the administration of compound, animals are sacrificed, and brains as well as cerebrospinal fluid (CSF) and plasma are removed for analysis of A-beta levels and drug or test compound concentrations (Dovey et al., 2001, Journal of Neurochemistry, 76,173-181) Beginning at time 0, animals are administered by oral gavage, or other means of delivery such as intravenous injection, an inhibitory test compound of up to 100 mg/kg in a standard, conventional formulation, such as 2% hydroxypropyl methylcellulose, 1% Tween80. A separate group of animals receive 2% hydroxypropyl methylcellulose, 1% Tween80 alone, containing no test compound, and serve as a vehicle-control group. At the end of the test period, animals are sacrificed and brain tissues, plasma or cerebrospinal fluid are collected. […] Homogenates are centrifuged at 355,000 g, 4° C. for 30 minutes. CSF or brain supernatants are then analyzed for the presence of A-beta peptide by specific sandwich ELISA assays based on ECL (Electrochemiluminescence) technology. For example, rat Abeta40 is measured using biotinylated-4G8 (Signet) as a capture antibody and Fab40 (an in-house antibody specific to the C-terminal of Abeta40) as a detection antibody. For example, 4 hours after administration of 30 mg/kg oral dose of the test compound in 2% hydroxypropyl methylcellulose, 1% Tween80 (pH2.2) to 200 g male Sprague Dawley rats, amyloid beta peptide levels are measured for reduction by X % and Y % in cerebrospinal fluid and brain, respectively, when compared to the levels measured in the vehicle-treated or control mice.
(§3) Actual vehicles used: Oral: 2% HPMC, 1% Tween80, pH 2.2
The compounds of the invention may be shown to reduce the formation and/or deposition of amyloid beta peptide in the cerebrospinal fluid (CSF) as well as in the brain of a mouse or rat at either 3 mpk, 10 mpk or 30 mpk (mpk=mg compound per kg weight of the animal) dosing concentrations after 4 h.

Aβ 40 in rat brain = assay: In vivo inhibition of beta-secretase: Aβ40 reduction in rat brain; details: after 4 h
Source text: as §2
Several animal models, including mouse, rat, dog, and monkey, may be used to screen for inhibition of beta-secretase activity in vivo following administration of a test compound sample. Animals used in this invention can be wild type, transgenic, or gene knockout animals. […] One to twenty-four hours following the administration of compound, animals are sacrificed, and brains as well as cerebrospinal fluid (CSF) and plasma are removed for analysis of A-beta levels and drug or test compound concentrations (Dovey et al., 2001, Journal of Neurochemistry, 76,173-181) Beginning at time 0, animals are administered by oral gavage, or other means of delivery such as intravenous injection, an inhibitory test compound of up to 100 mg/kg in a standard, conventional formulation, such as 2% hydroxypropyl methylcellulose, 1% Tween80. A separate group of animals receive 2% hydroxypropyl methylcellulose, 1% Tween80 alone, containing no test compound, and serve as a vehicle-control group. At the end of the test period, animals are sacrificed and brain tissues, plasma or cerebrospinal fluid are collected. […] Homogenates are centrifuged at 355,000 g, 4° C. for 30 minutes. CSF or brain supernatants are then analyzed for the presence of A-beta peptide by specific sandwich ELISA assays based on ECL (Electrochemiluminescence) technology. For example, rat Abeta40 is measured using biotinylated-4G8 (Signet) as a capture antibody and Fab40 (an in-house antibody specific to the C-terminal of Abeta40) as a detection antibody.
as §3

human recombinant BACE2, sequence (Q9Y5Z0 63-518): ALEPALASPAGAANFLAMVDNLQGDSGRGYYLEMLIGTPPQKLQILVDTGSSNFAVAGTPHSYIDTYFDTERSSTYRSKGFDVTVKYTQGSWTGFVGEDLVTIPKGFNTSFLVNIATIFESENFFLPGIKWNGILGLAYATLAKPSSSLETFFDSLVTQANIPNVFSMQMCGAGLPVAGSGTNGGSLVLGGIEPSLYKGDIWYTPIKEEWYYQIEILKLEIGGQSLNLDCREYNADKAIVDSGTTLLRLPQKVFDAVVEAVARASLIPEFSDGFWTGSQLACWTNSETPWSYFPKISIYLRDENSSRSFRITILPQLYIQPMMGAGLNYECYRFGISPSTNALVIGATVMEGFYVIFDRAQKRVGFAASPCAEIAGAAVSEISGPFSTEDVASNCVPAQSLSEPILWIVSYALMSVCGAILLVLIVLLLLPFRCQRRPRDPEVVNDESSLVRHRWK
human recombinant BACE1, sequence (P56817 46-501): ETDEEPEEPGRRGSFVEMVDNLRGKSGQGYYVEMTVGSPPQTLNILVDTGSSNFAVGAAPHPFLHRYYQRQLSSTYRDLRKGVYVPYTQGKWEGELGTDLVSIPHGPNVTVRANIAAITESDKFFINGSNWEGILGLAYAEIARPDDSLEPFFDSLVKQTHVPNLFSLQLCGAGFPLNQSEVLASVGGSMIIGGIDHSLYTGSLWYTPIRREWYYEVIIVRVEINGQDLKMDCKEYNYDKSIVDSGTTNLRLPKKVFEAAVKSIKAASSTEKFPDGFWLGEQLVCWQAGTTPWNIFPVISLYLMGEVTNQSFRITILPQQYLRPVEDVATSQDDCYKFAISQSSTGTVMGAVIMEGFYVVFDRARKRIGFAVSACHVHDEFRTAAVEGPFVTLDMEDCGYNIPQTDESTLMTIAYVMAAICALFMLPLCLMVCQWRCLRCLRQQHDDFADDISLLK
Recombinant Cat D, sequence (P07339 65-412): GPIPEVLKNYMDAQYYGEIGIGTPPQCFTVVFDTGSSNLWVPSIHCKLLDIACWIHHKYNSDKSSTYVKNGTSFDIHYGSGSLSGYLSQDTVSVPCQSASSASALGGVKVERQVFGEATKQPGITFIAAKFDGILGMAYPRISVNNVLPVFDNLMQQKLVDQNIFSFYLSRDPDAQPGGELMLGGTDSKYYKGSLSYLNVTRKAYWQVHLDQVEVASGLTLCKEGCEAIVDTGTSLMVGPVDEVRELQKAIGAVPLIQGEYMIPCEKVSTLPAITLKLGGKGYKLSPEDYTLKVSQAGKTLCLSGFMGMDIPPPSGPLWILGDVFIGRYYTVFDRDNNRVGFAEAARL

SMILES | IC50 ([1]; BACE1 cell-based assay) [µM] | IC50 (Recombinant Cat D) [µM] | % Aβ 40 reduction in rat CSF at 10 mpk (Aβ 40 in rat CSF) [%] | % Aβ 40 reduction in rat brain at 10 mpk (Aβ 40 in rat brain) [%] | also measured
N#Cc1cnc2c(Nc3ccc(F)c([C@@]4(CF)N=C(N)S[C@H]5CC54)c3)nccc2c1 (stereo in doubt) [Example 38, 8-((3-((1S,5S,6S)-3-amino-5-(fluoromethyl)-2-thia-4-azabicyclo[4.1.0]hept-3-en-5-yl)-4-fluorophenyl)amino)-1,7-naphthyridine-3-carbonitrile] | 0.0144 | > 133 | 66 | 44 | IC50 (human recombinant BACE1): 0.0157 µM; IC50 (human recombinant BACE2): 0.00728 µM
COc1cnc(C(=O)Nc2ccc(F)c([C@@]3(CF)N=C(N)S[C@H]4C[C@H]43)c2)cn1 [Example 4, N-(3-((1S,5S,6S)-3-amino-5-(fluoromethyl)-2-thia-4-azabicyclo[4.1.0]hept-3-en-5-yl)-4-fluorophenyl)-5-methoxy-2-pyrazinecarboxamide] | 0.0164 | 1840 | 40 | 18 | IC50 (human recombinant BACE1): 0.0696 µM
C[C@]1(c2cc(NC(=O)c3ccc(Cl)cn3)cc(F)c2F)N=C(N)S[C@H]2C[C@H]21 [Example 6, N-(3-((1S,5S,6S)-3-amino-5-methyl-2-thia-4-azabicyclo[4.1.0]hept-3-en-5-yl)-4,5-difluorophenyl)-5-chloro-2-pyridinec arboxamide] | – | – | 78 | – | –
C[C@]1(c2cc(NC(=O)c3ccc(Cl)cn3)cc(F)c2F)N=C(N)S[C@@]2(CF)C[C@H]21 [Example 12, N-(3-((1S,5S,6S)-3-amino-1-(fluoromethyl)-5-methyl-2-thia-4-azabicyclo[4.1.0]hept-3-en-5-yl)-4,5-difluorophenyl)-5-chloropicolinamide] | – | – | 75 | – | –
N#Cc1cnc2c(Nc3cc(F)c(F)c([C@@]4(CF)N=C(N)S[C@H]5C[C@H]54)c3)nccc2c1 [Example 26, 8-((3-((1S,5S,6S)-3-amino-5-(fluoromethyl)-2-thia-4-azabicyclo[4.1.0]hept-3-en-5-yl)-4,5-difluorophenyl)amino)-1,7-naphthyridine-3-carbonitrile] | 0.0213 | > 133 | 38 | 34 | IC50 (human recombinant BACE1): 0.0107 µM
N#Cc1cnc2c(Nc3cc(F)c(F)c([C@@]4(CF)N=C(N)S[C@H]5C[C@H]54)c3)ncnc2c1 [Example 28, 4-((3-((1S,5S,6S)-3-amino-5-(fluoromethyl)-2-thia-4-azabicyclo[4.1.0]hept-3-en-5-yl)-4,5-difluorophenyl)amino)pyrido[3,2-d]pyrimidine-7-carbonitrile] | 0.0204 | 466 | 42 | 26 | IC50 (human recombinant BACE2): 0.0497 µM
C[C@]1(c2cc(Nc3ncnc4cc(C#N)cnc34)cc(F)c2F)N=C(N)S[C@H]2C[C@H]21 [Example 36, 4-((3-((1S,5S,6S)-3-amino-5-methyl-2-thia-4-azabicyclo[4.1.0]hept-3-en-5-yl)-4,5-difluorophenyl)amino)pyrido[3,2-d]pyrimidine-7-carbonitrile] | 0.00767 | 250 | 74 | 46 | IC50 (human recombinant BACE2): 0.0562 µM
NC1=N[C@](CF)(c2cc(Nc3ncnc4cc(Cl)cnc34)ccc2F)[C@H]2C[C@@H]2S1 [Example 39, N-(3-((1S,5S,6S)-3-amino-5-(fluoromethyl)-2-thia-4-azabicyclo[4.1.0]hept-3-en-5-yl)-4-fluorophenyl)-7-chloropyrido[3,2-d]pyrimidin-amine] | 0.024 | – | 50 | 23 | –
C#CCOc1cnc(C(=O)Nc2cc(F)c(F)c([C@@]3(C)N=C(N)S[C@@]4(COC)C[C@H]43)c2)cn1 [Example 72, N-(3-((1S,5S,6S)-3-amino-1-(methoxymethyl)-5-methyl-2-thia-4-azabicyclo[4.1.0]hept-3-en-5-yl)-4,5-difluorophenyl)-5-(2-propyn-1-yloxy)-2-pyrazinecarboxamide] | 0.00082 | – | 85 | – | –
C#CCOc1cnc(C(=O)Nc2cc(F)c(F)c([C@@]3(C)N=C(N)S[C@@]4(C(F)F)C[C@@H]34)c2)cn1 [Example 807, N-(3-((1S,5S,6S)-3-amino-1-(difluoromethyl)-5-methyl-2-thia-4-azabicyclo[4.1.0]hept-3-en-5-yl)-4,5-difluorophenyl)-5-(2-propyn-1-yloxy)-2-pyrazinecarboxamide] | – | – | – | – | % Aβ 40 reduction in rat CSF (3 mpk) (Aβ 40 in rat CSF): 80 (3 mpk) %
C#CCOc1cnc(C(=O)Nc2cc(F)c(F)c([C@@]3(C)N=C(N)S[C@@]4(CF)C[C@H]43)c2)cn1 [Example 810, N-(3-((1S,5S,6S)-3-amino-1-(fluoromethyl)-5-methyl-2-thia-4-azabicyclo[4.1.0]hept-3-en-5-yl)-4,5-difluorophenyl)-5-(prop-2-yn-1-yloxy)pyrazine-2-carboxamide] | – | – | – | – | % Aβ 40 reduction in rat CSF (3 mpk) (Aβ 40 in rat CSF): 79 (3 mpk) %; % Aβ 40 reduction in rat brain (3 mpk) (Aβ 40 in rat brain): 74 (3 mpk) %
COC[C@]12C[C@H]1[C@@](C)(c1cc(NC(=O)c3cnc(OCC(F)(F)F)cn3)cc(F)c1F)N=C(N)S2 [Example 815, N-(3-((1S,5S,6S)-3-amino-1-(methoxymethyl)-5-methyl-2-thia-4-azabicyclo[4.1.0]hept-3-en-5-yl)-4,5-difluorophenyl)-5-(2,2,2-trifluoroethoxy)-2-pyrazinecarboxamide] | – | – | 50 | – | –
[2H]C([2H])([2H])OC[C@]12C[C@H]1[C@@](C)(c1cc(NC(=O)c3cnc(OCC#C)cn3)cc(F)c1F)N=C(N)S2 [Example 969, N-(3-((1S,5S,6S)-3-amino-5-methyl-1-(((trideuterium)methyloxy)methyl)-2-thia-4-azabicyclo[4.1.0]hept-3-en-5-yl)-4,5-difluorophenyl)-5-(2-propyn-1-yloxy)-2-pyrazinecarboxamide] | – | – | – | – | IC50 [1]: 0.000687 µM; % Aβ 40 reduction in rat CSF (3 mpk) (Aβ 40 in rat CSF): 79 (3 mpk) %; % Aβ 40 reduction in rat brain (3 mpk) (Aβ 40 in rat brain): 79 (3 mpk) %
